PMC12389586, “Anticancer Activity of Paclitaxel-Loaded Mesoporous Silica Nanoparticles in B16F10 Melanoma-Bearing Mice” (Pharmaceutics, 2025)

Columns and labels:
B16F10 cells [1] = experiment: Apoptosis analysis by flow cytometry (Annexin V); format: cell-based; settings: 24 h; equivalent to 25 μg/mL PTX (+200 μg/mL CUR, +600 μg/mL TPGS)
Procedure: B16F10 cells were seeded at a density of 8 × 10^4 cells in a cell culture dish and cultured until a confluency of 80% was reached. Upon reaching the desired confluency, the culture medium was aspirated and replaced with fresh medium containing one of the following treatments: control, PTX (25 μg/mL), PS (equivalent to 25 μg/mL PTX), PSC (equivalent to 25 μg/mL PTX + 200 μg/mL curcumin), and PSCT (equivalent to 25 μg/mL PTX + 200 μg/mL curcumin + 600 μg/mL TPGS).
After 24 h of treatment, the culture supernatant was collected into a 15 mL conical tube. Cells were then detached using 1.5 mL of trypsin, and the resulting cell suspension—including detached cells and debris—was combined with the previously collected medium in the same tube. The samples were centrifuged at 1000 rpm for 3 min, and the supernatant was carefully discarded. The cell pellet was resuspended in 1 mL of DMEM supplemented with 10% FBS and 1% penicillin–streptomycin. Subsequently, 100 μL of the Muse Annexin V and Dead Cell kit (Cytek Biosciences Inc., Fremont, CA, USA) was added to the cell suspension, and the samples were incubated at room temperature in the dark for 20 min. Apoptosis and cell viability were then assessed using the Guava® Muse® Cell Analyzer (Cytek Biosciences Inc., Fremont, CA, USA).

B16F10 spheroids = experiment: Cytotoxicity and PTX accumulation in 3D cultured spheroid; format: cell-based; settings: for spheroid growth / radius: 5 days, PTX 25 µg/mL or equivalent, CUR 200 µg/mL, TPGS 600 µg/mL, SMB7 200 µg/mL
Procedure: B16F10 cells were seeded at a density of 3 × 10^5 cells per well in an ultra-low attachment 96-well plate to facilitate spheroid formation. Immediately after seeding, the plate was centrifuged at […] for 15 min to promote cell aggregation. Following centrifugation, the spheroids were allowed to stabilize for 24 h before drug treatment. The spheroids were treated with the following conditions and grown for 5 days: control, 200 μg/mL of SMB7, 200 μg/mL of curcumin, 25 μg/mL of PTX, PS (equivalent to 25 μg/mL PTX), PS with curcumin (equivalent to 25 μg/mL PTX + 200 μg/mL curcumin), and PS with TPGS (equivalent to 25 μg/mL PTX + 600 μg/mL TPGS).
During the culture period, the spheroid radius was measured daily to assess tumor growth inhibition across different treatment groups. After five days, the spheroids were harvested, disrupted into a single-cell suspension, and analyzed for intracellular PTX and curcumin concentrations using LC–MS/MS. Additionally, the culture medium was collected from each well and analyzed to quantify the remaining extracellular concentrations of PTX and curcumin, providing further insights into drug uptake and retention within the spheroids.

β-tubulin = experiment: Confocal staining of β-tubulin and nuclei; format: cell-based; settings: B16F10 cells, 24 h; PTX 25 µg/mL or equivalent, CUR 200 µg/mL, TPGS 600 µg/mL, SMB7 200 µg/mL
Procedure: B16F10 cells were seeded at a density of 4 × 10^4 cells per well in a 24-well plate and cultured until a confluency of 80% was reached. Once the desired confluency was achieved, the culture medium was replaced with fresh media containing the following respective treatments: control, 200 μg/mL of SMB7, 200 μg/mL of curcumin, 25 μg/mL of PTX, PS (equivalent to 25 μg/mL PTX), PS with curcumin (equivalent to 25 μg/mL PTX + 200 μg/mL curcumin), and PS with TPGS (equivalent to 25 μg/mL PTX + 600 μg/mL TPGS).
Cells were incubated post-treatment for 24 h and then fixed and stained to visualize intracellular structures. DAPI was used for DNA staining to highlight nuclear morphology, and goat anti-Mouse IgG conjugated with FSD 594 was employed for β-tubulin staining to observe microtubule organization. As PTX primarily acts by stabilizing microtubules, fluorescence images were acquired using an LSM700 confocal laser scanning microscope (Carl Zeiss GmbH, Oberkochen, Germany). Confocal images were acquired at 100 × magnification to enhance the visualization of DNA and β-tubulin structures, enabling the assessment of PTX-induced cytoskeletal disruption and apoptosis-related nuclear changes.

B16F10 cells [2] = experiment: Cell viability (MTT assay); format: cell-based; settings: Mus musculus, B16-F10, 48 h exposure, 0–1000 nM PTX or equivalent
Procedure: B16F10 cells were seeded at a density of 4 × 10^4 cells per well in a 96-well plate and incubated at 37 °C in a 5% CO2 atmosphere for 24 h to allow cell attachment and stabilization before drug administration. After 24 h, the medium was replaced with fresh culture media containing various PTX formulations (i.e., PTX, PS, PS with CUR, PS with TPGS, and PS with verapamil) at increasing concentrations (0, 10, 20, 50, 100, 200, 500, and 1000 nM) of PTX or its equivalent amount.
After 48 h of drug exposure, MTT reagent (0.5 mg/mL in PBS, 15 μL) was added to each well, followed by an additional 4 h incubation to allow mitochondrial dehydrogenase enzymes in viable cells to reduce MTT into insoluble formazan crystals. The resulting formazan was then solubilized using 150 μL DMSO, and the absorbance was measured at 592 nm using an ultraviolet (UV) spectrophotometer. Cell viability was calculated relative to the untreated control group. Data were fitted using the inhibitory effect model v=Emax(1−[I]/IC50+[I]) . Emax and IC50 represent uninhibited cell viability (%) and the concentration of PTX (nM) at which half-maximal inhibition occurs. [I] represents the concentration of PTX.

[3] = In vitro drug release test (dialysis pouch); format: physicochemical; settings: over 48 h; SBF pH 7.4, release medium SBF + 0.5% Tween 80
Procedure: The in vitro drug release of PTX from the formulation was measured as follows: PTX and PS (all containing 2 mg PTX) were placed in the cellulose membrane pouch (Snakeskin^TM Dialysis Tubing 10,000 MWCO; Thermo Fisher Scientific Inc.; Waltham, MA, USA), and 5 mL of SBF (pH 7.4) was added inside the cellulose membrane pouch. The cellulose membrane pouch was put into 50 mL of SBF containing 0.5% Tween 80 in a 250 mL beaker and shaken at 100 rpm in a dual-motion shaker (Finepcr; Gunpo-si, Republic of Korea). Samples (100 μL aliquots) were collected for 48 h, and then diluted 100-fold with mobile phase and injected into the LC-MS/MS system to measure the PTX concentration.
In this study, PS in 5 mL SBF was placed in a dialysis pouch, while the exterior release medium consisted of 50 mL of SBF + 0.5% Tween 80. This large external volume and surfactant content allowed the PTX released from the pouch to diffuse into the external medium and remain dissolved.

[4] = Biodistribution in B16F10 melanoma-bearing mice; format: in vivo, C57BL/6 mice; settings: C57BL/6, mouse, subcutaneous, heart, lung, kidney, pancreas, liver and tumor tissues, read-out: PTX tissue concentration relative to plasma
Procedure: After the final injection, the mice from PTX + CUR, PSC, and PSCT groups were randomly subdivided into two time points (n = 5 for each subgroup; 2 h and 8 h post-administration) for pharmacokinetic and biodistribution analyses. At the designated time points (0.25, 1, and 2 h from the 2 h group; 0.5, 4, and 8 h from the 8 h group), blood samples (approximately 80 µL) were collected from the retro-orbital plexus of mice. For the PTX and CUR analyses, 30 µL of plasma aliquots were stored at −80 °C. At 2 h, the mice were anesthetized, and the organs (heart, lung, liver, kidney, pancreas, and tumor) were harvested, weighed, and homogenized using a MM400 Laboratory Ball Mixer Mill (Retsch, Haan, Germany). Aliquots (50 µL) of 20% tissue homogenates prepared using 10% MeOH were stored at −80 °C for subsequent analyses. […]
The biodistribution of PTX in various mouse tissues was quantified and expressed as a percentage of the injected dose per gram of tissue (%ID/g). […] The following formula was used to calculate the drug concentration in the tissue, which is measured (e.g., ng), normalized to the total injected dose, and further corrected based on the weight of the harvested tissue to standardize drug accumulation across different organs as follows: %ID/g=Drug amount in each organmg/Injected Dose mg×100×1/Organ weight (g) .

[5] = after 5 days of treatment, equivalent to 25 μg/mL PTX

Row | Structure (SMILES) | early apoptosis (B16F10 cells [1]) [%] | late apoptosis (Late Apop./Dead) (B16F10 cells [1]) [%] | total apoptosis rate (B16F10 cells [1]) [%] | spheroid growth / radius (B16F10 spheroids) | Incorporated PTX (B16F10 spheroids; [5]) [%] | PTX concentration (intracellular accumulation in spheroids) (B16F10 spheroids; [5]) [µg/mL] | β-tubulin expression (microtubule integrity) (β-tubulin) | IC50 (B16F10 cells [2]) [nM] | drug release [3] [%] | Kp at 2 h [4]
1 | CC(=O)O[C@H]1C(=O)[C@@]2(C)[C@H]([C@H](OC(=O)c3ccccc3)[C@]3(O)C[C@H](OC(=O)[C@H](O)[C@@H](NC(=O)c4ccccc4)c4ccccc4)C(C)=C1C3(C)C)[C@]1(OC(C)=O)CO[C@@H]1C[C@@H]2O [PTX, Paclitaxel] | 11.5 | 9.8 | 21.3 | significantly suppressed the tumor growth of B16F10 spheroids | 20.3 | 5.09 ± 0.16 | pronounced decrease in β-tubulin intensity | 283 | 6.58 | > 100
2 | COc1cc(/C=C/C(=O)CC(=O)/C=C/c2ccc(O)c(OC)c2)ccc1O [CUR, Curcumin] |  |  |  | significantly suppressed the tumor growth of B16F10 spheroids |  |  | moderate reduction in β-tubulin expression |  |  | 
